These results are taken from PubChem BioAssay AID1259407 (Chemical Carcinogenesis Research Information System (CCRIS), 2018).

This data set relates to CCRIS mutagenicity, Ames/micronucleus/aberration tests. In words: CCRIS mutagenicity studies. Conditions: Test System: AMES SALMONELLA TYPHIMURIUM
Where [1] appears, read: Strain/Indicator: TA98, Metabolic Activation: NONE, Method: PREINCUBATION
Setting [2] is: Strain/Indicator: TA100, Metabolic Activation: NONE, Method: PREINCUBATION

Active and inactive are the calls of the source. How the calls were made is not given here.

Regarding `O=C1C=C(S(=O)(=O)O)c2ccccc2C1=O`, the mutagenic call by setting is: (Strain/Indicator: TA97, Metabolic Activation: NONE, Method: PREINCUBATION) “inactive; negative”; (Strain/Indicator: TA97, Metabolic Activation: RAT, LIVER, S-9, PHENOBARBITAL AND 5,6-BENZOFLAVONE, Method: PREINCUBATION) “inactive; negative”; under setting [1], “inactive; negative”; (Strain/Indicator: TA98, Metabolic Activation: RAT, LIVER, S-9, PHENOBARBITAL AND 5,6-BENZOFLAVONE, Method: PREINCUBATION) “inactive; negative”; under setting [2], “active; positive”; (Strain/Indicator: TA100, Metabolic Activation: RAT, LIVER, S-9, PHENOBARBITAL AND 5,6-BENZOFLAVONE, Method: PREINCUBATION) “inactive; negative”. Further, the mutagenic call is, setting by setting: (Strain/Indicator: TA102, Metabolic Activation: NONE, Method: PREINCUBATION) “inactive; negative”; (Strain/Indicator: TA102, Metabolic Activation: RAT, LIVER, S-9, PHENOBARBITAL AND 5,6-BENZOFLAVONE, Method: PREINCUBATION) “inactive; negative”; (Strain/Indicator: TA104, Metabolic Activation: NONE, Method: PREINCUBATION) “active; positive”; (Strain/Indicator: TA104, Metabolic Activation: RAT, LIVER, S-9, PHENOBARBITAL AND 5,6-BENZOFLAVONE, Method: PREINCUBATION) “inactive; negative”; (Strain/Indicator: TA1535, Metabolic Activation: NONE, Method: PREINCUBATION) “inactive; negative”; (Strain/Indicator: TA1535, Metabolic Activation: RAT, LIVER, S-9, PHENOBARBITAL AND 5,6-BENZOFLAVONE, Method: PREINCUBATION) “inactive; negative”. In addition, the mutagenic call runs as follows: (Strain/Indicator: TA1537, Metabolic Activation: NONE, Method: PREINCUBATION) “inactive; negative”; (Strain/Indicator: TA1537, Metabolic Activation: RAT, LIVER, S-9, PHENOBARBITAL AND 5,6-BENZOFLAVONE, Method: PREINCUBATION) “inactive; negative”; (Strain/Indicator: TA1538, Metabolic Activation: NONE, Method: PREINCUBATION) “inactive; negative”; (Strain/Indicator: TA1538, Metabolic Activation: RAT, LIVER, S-9, PHENOBARBITAL AND 5,6-BENZOFLAVONE, Method: PREINCUBATION) “inactive; negative”; (Strain/Indicator: TA2637, Metabolic Activation: NONE, Method: PREINCUBATION) “active; positive”; (Strain/Indicator: TA2637, Metabolic Activation: RAT, LIVER, S-9, PHENOBARBITAL AND 5,6-BENZOFLAVONE, Method: PREINCUBATION) “inactive; negative”.

In the case of `Nc1cc(-c2ccncc2)c[nH]c1=O`, the mutagenic call reads like this: (Strain/Indicator: TA97, Metabolic Activation: NONE) “inactive; negative”; (Strain/Indicator: TA97, Metabolic Activation: S-9) “inactive; negative”; (Strain/Indicator: TA98, Metabolic Activation: NONE) “inactive; negative”; (Strain/Indicator: TA98, Metabolic Activation: NONE, Method: STANDARD PLATE) “inactive; negative”; (Strain/Indicator: TA98, Metabolic Activation: RAT, LIVER, S-9, Method: STANDARD PLATE) “inactive; negative”; (Strain/Indicator: TA98, Metabolic Activation: S-9) “inactive; negative”. For the same compound, the mutagenic call is “inactive; negative” (Strain/Indicator: TA100, Metabolic Activation: NONE, Method: STANDARD PLATE); “inactive; negative” (Strain/Indicator: TA100, Metabolic Activation: RAT, LIVER, S-9, Method: STANDARD PLATE); “inactive; negative” (Strain/Indicator: TA100, Metabolic Activation: S-9); “inactive; negative” (Strain/Indicator: TA102, Metabolic Activation: NONE); “inactive; negative” (Strain/Indicator: TA102, Metabolic Activation: S-9); “inactive; negative” (Strain/Indicator: TA1535, Metabolic Activation: NONE, Method: STANDARD PLATE). For the same compound, the mutagenic call by setting is: (Strain/Indicator: TA1535, Metabolic Activation: RAT, LIVER, S-9, Method: STANDARD PLATE) “inactive; negative”; (Strain/Indicator: TA1537, Metabolic Activation: NONE, Method: STANDARD PLATE) “inactive; negative”; (Strain/Indicator: TA1537, Metabolic Activation: RAT, LIVER, S-9, Method: STANDARD PLATE) “inactive; negative”; (Strain/Indicator: TA1538, Metabolic Activation: NONE, Method: STANDARD PLATE) “inactive; negative”; (Strain/Indicator: TA1538, Metabolic Activation: RAT, LIVER, S-9, Method: STANDARD PLATE) “inactive; negative”.

`CC(=O)Nc1ccc(Oc2ccc(N(O)C(C)=O)cc2)cc1`: the mutagenic call reads like this: (Strain/Indicator: TA98(1,8-DNP6), Metabolic Activation: NONE, Method: PREINCUBATION) “active; positive”; (Strain/Indicator: TA98(1,8-DNP6), Metabolic Activation: RAT, LIVER, S-9, AROCLOR 1254, Method: PREINCUBATION) “active; positive”; (Strain/Indicator: TA98(NR), Metabolic Activation: NONE, Method: PREINCUBATION) “active; positive”; (Strain/Indicator: TA98(NR), Metabolic Activation: RAT, LIVER, S-9, AROCLOR 1254, Method: PREINCUBATION) “active; positive”; under setting [1], “active; positive”; (Strain/Indicator: TA98, Metabolic Activation: RAT, LIVER, S-9, AROCLOR 1254, Method: PREINCUBATION) “active; positive”. The mutagenic call by setting is: (Strain/Indicator: TA100(NR), Metabolic Activation: NONE, Method: PREINCUBATION) “active; positive”; (Strain/Indicator: TA100(NR), Metabolic Activation: RAT, LIVER, S-9, AROCLOR 1254, Method: PREINCUBATION) “active; positive”; under setting [2], “active; positive”; (Strain/Indicator: TA100, Metabolic Activation: RAT, LIVER, S-9, AROCLOR 1254, Method: PREINCUBATION) “active; positive”.
